Values joined by “and” are separate entries in the source; they are usually repeats but may differ in a detail not shown here. Identical values can stand only once.
Legend:
[1] = biological target: T1, Mouse EL (Mus musculus, UniProt Q9WVG5); assay: Endothelial Lipase Assay, cell surface lipase activity (mouse); type: cell-based; settings: PLA1 substrate 10 μM, fluorescence reaction rate, several values in a cell are repeat determinations
T1 construct: host or cells: not described for mouse EL
T1 sequence (Q9WVG5 21-500): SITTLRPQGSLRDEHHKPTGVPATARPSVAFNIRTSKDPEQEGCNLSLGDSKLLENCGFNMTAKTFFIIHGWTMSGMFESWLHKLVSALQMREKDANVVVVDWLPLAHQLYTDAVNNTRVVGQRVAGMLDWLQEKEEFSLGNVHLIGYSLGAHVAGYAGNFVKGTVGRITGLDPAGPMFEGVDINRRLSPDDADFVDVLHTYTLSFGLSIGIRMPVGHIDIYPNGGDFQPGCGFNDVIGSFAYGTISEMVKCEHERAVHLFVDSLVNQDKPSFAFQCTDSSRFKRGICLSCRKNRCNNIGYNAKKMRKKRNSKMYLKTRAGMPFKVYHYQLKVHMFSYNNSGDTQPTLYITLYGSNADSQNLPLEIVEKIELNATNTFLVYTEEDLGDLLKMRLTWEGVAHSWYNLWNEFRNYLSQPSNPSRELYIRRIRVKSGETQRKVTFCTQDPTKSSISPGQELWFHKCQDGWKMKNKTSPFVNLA
In short: (§1)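 Cells expressing human or mouse EL, plated 2000 cells/well in serum-free medium for 18-24 h at 37° C, then given PLA1 substrate (10 μM final) in HBSS/25 mM HEPES pH 7.2. Fluorescence (ex 490/em 515 nm) read kinetically for 30 min at 37° C; IC50 from slopes of linear regression over 480-1500 s.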

[2] = biological target: T2, human endothelial lipase (EL) (Homo sapiens, UniProt Q9Y5X9); assay: Endothelial Lipase Assay, cell surface lipase activity (human); type: cell-based; settings: cells expressing human EL, PLA1 substrate 10 μM, fluorescence reaction rate; several values in a cell are repeat determinations
T2 construct: host or cells: cells expressing human endothelial lipase
T2 sequence (Q9Y5X9 21-500): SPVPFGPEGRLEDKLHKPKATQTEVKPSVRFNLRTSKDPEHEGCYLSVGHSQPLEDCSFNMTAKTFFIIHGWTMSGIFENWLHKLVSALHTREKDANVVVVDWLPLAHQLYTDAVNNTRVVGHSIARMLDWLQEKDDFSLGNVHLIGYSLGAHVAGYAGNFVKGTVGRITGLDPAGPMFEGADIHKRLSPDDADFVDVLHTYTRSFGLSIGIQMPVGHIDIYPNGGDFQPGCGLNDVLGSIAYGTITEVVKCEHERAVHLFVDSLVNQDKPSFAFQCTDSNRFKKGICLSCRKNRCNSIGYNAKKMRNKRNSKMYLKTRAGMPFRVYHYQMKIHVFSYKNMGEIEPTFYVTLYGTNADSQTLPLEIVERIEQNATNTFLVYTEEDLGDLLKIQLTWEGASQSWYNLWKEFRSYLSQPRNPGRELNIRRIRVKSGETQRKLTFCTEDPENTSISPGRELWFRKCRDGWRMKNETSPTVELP
In short: as §1

SMILES	IC50 [1]	IC50 [2]
O=C(CCCCCCc1ccccc1)C(=O)NCc1nnc(-c2ccc(OCc3cc(F)cc(F)c3)cc2)o1 [Compound 90]	80 nM and 159 nM	548 nM and 188 nM
O=C(CCCCCCc1ccccc1)C(=O)NCc1nnc(-c2ccccc2)o1 [Compound 1, 2-oxo-8-phenyl-N-((5-phenyl-1,3,4-oxadiazol-2-yl)methyl)octanamide]	1050 nM and 864 nM and 708 nM	952 nM and 836 nM and 690 nM
O=C(CCCCCCc1ccc(F)nc1)C(=O)NCc1nnc(-c2ccc(OCc3ccnc(Cl)c3)cc2)s1 [Compound 169]	62 nM	85 nM
